Assay [1] concerns the target T1, human recombinant histamine H1 receptor (Homo sapiens, UniProt P35367).
T1 construct: expressed in transfected cells; host or cells: CHO cells
In words: Histamine H1 radioligand binding ([3H]Pyrilamine). The note with it: percent inhibition of specific binding; screened at 1 μM; read-out: Inhibition of ligand binding, Hist. H1. The method, boiled down: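 Receptor expressed in CHO cells, assayed in 50 mM Tris-HCl pH 7.4 with 2 mM MgCl2, 100 mM NaCl, 250 mM sucrose. Compounds tested at 1 μM in 1% DMSO; non-specific binding set with 1 μM pyrilamine. Filter-bound radioactivity counted; values are percent inhibition of specific binding.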

For assay [2], the target named is T2, human recombinant histamine H2 receptor (Homo sapiens, UniProt P25021).
T2 construct: expressed in transfected cells; host or cells: CHO-K1 cells
In words: Histamine H2 radioligand binding ([125I]Aminopotentidine). The note with it: percent inhibition of specific binding; screened at 1 μM; read-out: Inhibition of ligand binding, Hist. H2. In outline:
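Test compounds were assessed for their ability to displace radioligand from the human recombinant histamine H2 receptor. Non-specific binding was determined in the presence of 3 μM Tiotidine, and results were expressed as percent inhibition of specific binding, with 1% DMSO serving as the vehicle.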

The target in assay [3] is T3, human recombinant dopamine D2L receptor (Homo sapiens, UniProt P14416).
T3 construct: expressed in transfected cells; host or cells: CHO cells
As to the kind of experiment: Dopamine D2L radioligand binding ([3H]Spiperone). Conditions: percent inhibition of specific binding. On the procedure: Non-specific binding was estimated in the presence of 10 μM Haloperidol. Receptor proteins were filtered and washed, the filters were then counted to determine [^3H]Spiperone specifically bound. […] Biochemical assay results are presented as the percent inhibition of specific binding in Table 6.

The target in assay [4] is T4, human recombinant serotonin (5-Hydroxytryptamine) 5-HT2A receptor (Homo sapiens, UniProt P28223).
T4 construct: expressed in transfected cells; host or cells: CHO-K1 cells
As to the kind of experiment: Serotonin 5-HT2A radioligand binding ([3H]Ketanserin). The note with it: percent inhibition of specific binding. On the procedure:
Compounds of the invention were incubated with 0.5 nM [^3H]Ketanserin for 60 minutes at 25° C. Non-specific binding was estimated in the presence of 1 μM Mianserin. Receptor proteins were filtered and washed, the filters were then counted to determine [^3H]Ketanserin specifically bound. […] Biochemical assay results are presented as the percent inhibition of specific binding in Table 6.

Assay [5] concerns the target T5, human recombinant adrenergic α1D receptor (Homo sapiens, UniProt P25100).
T5 construct: expressed in transfected cells; host or cells: HEK-293 cells
T5 sequence (P25100 1-572): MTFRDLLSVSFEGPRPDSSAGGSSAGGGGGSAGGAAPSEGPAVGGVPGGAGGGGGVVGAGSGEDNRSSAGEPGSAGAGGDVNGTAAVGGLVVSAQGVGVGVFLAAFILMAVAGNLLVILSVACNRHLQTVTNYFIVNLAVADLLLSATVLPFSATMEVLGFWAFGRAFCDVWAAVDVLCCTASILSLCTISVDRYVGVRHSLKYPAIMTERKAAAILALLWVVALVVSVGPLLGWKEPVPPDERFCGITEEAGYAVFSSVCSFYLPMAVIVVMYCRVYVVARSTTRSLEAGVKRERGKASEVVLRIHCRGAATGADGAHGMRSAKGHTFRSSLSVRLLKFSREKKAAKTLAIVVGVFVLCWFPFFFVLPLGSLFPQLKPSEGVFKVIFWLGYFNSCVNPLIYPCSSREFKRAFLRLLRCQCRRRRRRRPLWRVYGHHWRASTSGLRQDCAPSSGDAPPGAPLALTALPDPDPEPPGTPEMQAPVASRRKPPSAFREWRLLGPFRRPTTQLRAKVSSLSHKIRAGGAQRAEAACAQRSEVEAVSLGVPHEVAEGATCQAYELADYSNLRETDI
As to the kind of experiment: Adrenergic α1D radioligand binding ([3H]Prozosin). More on the design: Inhibition of ligand binding, Adren. alpha1D: concentration or dose not given beside the values. Conditions: percent inhibition of specific binding. On the procedure:
Compounds of invention were incubated with 0.6 nM [^3H]Prozosin for 60 minutes at 25° C. Non-specific binding was estimated in the presence of 10 μM phentolamine. Receptor proteins were filtered and washed, the filters were then counted to determine [^3H]Prozosin specifically bound. […] Biochemical assay results are presented as the percent inhibition of specific binding in Table 6.

In assay [6] the target is T6, human recombinant adrenergic α2B receptor (Homo sapiens, UniProt P18089).
T6 construct: expressed in transfected cells; host or cells: CHO-K1 cells
T6 sequence (P18089 1-450): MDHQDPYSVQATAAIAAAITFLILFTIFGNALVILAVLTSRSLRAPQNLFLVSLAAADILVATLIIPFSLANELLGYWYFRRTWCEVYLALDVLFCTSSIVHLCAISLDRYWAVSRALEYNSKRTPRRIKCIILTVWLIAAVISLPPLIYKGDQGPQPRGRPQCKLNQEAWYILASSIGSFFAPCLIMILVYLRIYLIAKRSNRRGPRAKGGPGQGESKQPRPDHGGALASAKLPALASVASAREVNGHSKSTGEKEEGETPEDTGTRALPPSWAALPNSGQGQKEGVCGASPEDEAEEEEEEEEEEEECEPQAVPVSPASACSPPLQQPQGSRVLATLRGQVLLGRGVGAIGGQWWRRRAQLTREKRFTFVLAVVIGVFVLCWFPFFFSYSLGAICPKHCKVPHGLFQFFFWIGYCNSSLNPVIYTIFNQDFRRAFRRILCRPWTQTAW
In words: Adrenergic α2B radioligand binding ([3H]Rauwolscine). More on the design: Inhibition of ligand binding, Adren. alpha2B: concentration or dose not given beside the values. The note with it: percent inhibition of specific binding. The method, boiled down:
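Membranes from CHO-K1 cells expressing the receptor, in 50 mM Tris-HCl pH 7.4 with 12.5 mM MgCl2, 1 mM EDTA, 0.2% BSA, incubated with compounds and 2.5 nM [3H]Rauwolscine for 60 minutes at 25 °C.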

T4 sequence (P28223 whole entry): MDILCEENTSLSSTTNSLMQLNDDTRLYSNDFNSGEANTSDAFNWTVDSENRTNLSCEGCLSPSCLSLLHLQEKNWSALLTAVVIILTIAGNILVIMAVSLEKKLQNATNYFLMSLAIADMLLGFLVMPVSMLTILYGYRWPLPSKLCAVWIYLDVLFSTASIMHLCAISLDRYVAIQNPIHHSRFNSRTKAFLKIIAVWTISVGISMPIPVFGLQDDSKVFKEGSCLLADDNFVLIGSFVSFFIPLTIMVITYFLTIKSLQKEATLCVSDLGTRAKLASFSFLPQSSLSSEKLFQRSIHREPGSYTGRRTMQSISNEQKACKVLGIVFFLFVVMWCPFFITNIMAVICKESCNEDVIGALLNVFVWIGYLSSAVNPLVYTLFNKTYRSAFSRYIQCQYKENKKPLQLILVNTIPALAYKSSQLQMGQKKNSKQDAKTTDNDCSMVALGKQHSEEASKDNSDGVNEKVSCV
T3 sequence (P14416 whole entry): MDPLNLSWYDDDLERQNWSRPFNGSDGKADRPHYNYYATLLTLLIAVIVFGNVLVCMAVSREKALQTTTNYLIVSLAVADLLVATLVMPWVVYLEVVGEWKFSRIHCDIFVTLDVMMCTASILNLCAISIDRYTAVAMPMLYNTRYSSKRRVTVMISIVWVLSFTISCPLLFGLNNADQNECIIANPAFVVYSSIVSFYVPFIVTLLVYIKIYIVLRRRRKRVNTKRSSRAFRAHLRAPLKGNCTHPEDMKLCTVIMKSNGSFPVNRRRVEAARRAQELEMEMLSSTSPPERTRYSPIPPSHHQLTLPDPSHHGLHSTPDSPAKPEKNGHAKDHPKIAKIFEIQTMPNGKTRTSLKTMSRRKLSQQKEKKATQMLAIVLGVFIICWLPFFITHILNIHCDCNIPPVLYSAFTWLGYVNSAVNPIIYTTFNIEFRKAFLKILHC
T2 sequence (P25021 whole entry): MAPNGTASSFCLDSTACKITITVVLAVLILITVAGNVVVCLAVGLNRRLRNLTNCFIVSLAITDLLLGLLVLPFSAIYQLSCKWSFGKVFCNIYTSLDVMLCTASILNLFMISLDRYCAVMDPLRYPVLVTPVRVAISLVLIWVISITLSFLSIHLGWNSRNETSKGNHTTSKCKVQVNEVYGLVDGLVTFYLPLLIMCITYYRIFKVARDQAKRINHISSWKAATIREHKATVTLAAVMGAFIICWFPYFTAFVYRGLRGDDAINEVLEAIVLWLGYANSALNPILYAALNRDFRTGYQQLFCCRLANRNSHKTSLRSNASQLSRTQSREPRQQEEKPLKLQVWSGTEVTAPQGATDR
T1 sequence (P35367 whole entry): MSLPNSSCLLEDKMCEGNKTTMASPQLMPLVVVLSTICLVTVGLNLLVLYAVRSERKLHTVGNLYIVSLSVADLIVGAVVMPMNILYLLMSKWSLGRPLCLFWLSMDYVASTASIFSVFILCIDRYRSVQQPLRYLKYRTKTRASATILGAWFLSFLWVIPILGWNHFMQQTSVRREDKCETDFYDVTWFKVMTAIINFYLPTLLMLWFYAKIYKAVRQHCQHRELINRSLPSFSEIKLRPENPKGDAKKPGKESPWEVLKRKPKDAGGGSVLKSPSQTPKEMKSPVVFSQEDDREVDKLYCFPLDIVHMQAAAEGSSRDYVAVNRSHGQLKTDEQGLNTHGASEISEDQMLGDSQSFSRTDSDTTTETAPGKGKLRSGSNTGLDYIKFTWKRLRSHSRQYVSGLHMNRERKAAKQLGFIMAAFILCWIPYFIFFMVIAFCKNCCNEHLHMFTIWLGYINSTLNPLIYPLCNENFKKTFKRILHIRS

The inhibition is the change of the read-out against control, counted positive when it falls. In the case of `OC1CCC(N2CCc3c(c4cc(Cl)ccc4n3CCc3ccc(C(F)(F)F)nc3)C2)C1` (stereo not drawn) [Compound 351, 3-(8-chloro-5-(2-(6-(trifluoromethyl)pyridin-3-yl)ethyl)-3,4-dihydro-1H-pyrido[4,3-b]indol-2(5H)-yl)cyclopentanol], the results for the inhibition at 1 µM in assay [1] and in assay [2] were 74% and -2%, respectively. Besides, the “Inhibition of ligand binding, Dop. D2L” value in assay [3] is 7%. In assay [4], the “Inhibition of ligand binding, Ser. 5-HT2A” value (“Inhibition … Ser. 5-HT2A” for short) turned out to be 1%. Also, the “Inhibition of ligand binding, Adren. alpha1D” value (“Inhibition … Adren. alpha1D” for short) in assay [5] is recorded as 61%. Besides, the “Inhibition of ligand binding, Adren. alpha2B” value (“Inhibition … Adren. alpha2B” below) in assay [6] turned out to be 43%.
For the molecule `CC(Cn1c2c(c3ccccc31)CN(C)CC2)c1ccc(F)cc1` (stereo not drawn) [Compound 455], the inhibition at 1 µM in assay [1] was determined as 80%; in assay [2] it was 91%. The “Inhibition of ligand binding, Dop. D2L” value in assay [3] is on record as 88%. The “Inhibition … Ser. 5-HT2A” value in assay [4] was found to be 99%. In addition, in assay [5], the “Inhibition … Adren. alpha1D” value amounted to 81%. In addition, in assay [6], the “Inhibition … Adren. alpha2B” value is reported as 120%.
Turning to `CCc1ccc2c(c1)c1c(n2CCc2cnc(C)nc2)CCN(C)C1` [Compound 362, 8-Ethyl-2-methyl-5-[2-(2-methyl-pyrimidin-5-yl)-ethyl]-2,3,4,5-tetrahydro-1H-pyrido[4,3-b]indole], the inhibition at 1 µM is 98% in assay [1] and 19% in assay [2]. Moreover, the “Inhibition of ligand binding, Dop. D2L” value in assay [3] was 17%. Also, the “Inhibition … Ser. 5-HT2A” value in assay [4] turned out to be 27%. Further, the “Inhibition … Adren. alpha1D” value in assay [5] came out at 76%. Further, the “Inhibition … Adren. alpha2B” value in assay [6] worked out at 82%.
`CN1CCc2c(c3cc(Cl)ccc3n2CCc2ccncc2)C1` [Compound 56]: the inhibition at 1 µM in assay [1] was 100%; in assay [2] it was 76%. Moreover, the “Inhibition of ligand binding, Dop. D2L” value in assay [3] is listed as 62%. Also, the “Inhibition … Ser. 5-HT2A” value in assay [4] is on record as 92%. For the same molecule, the “Inhibition … Adren. alpha1D” value in assay [5] was 91%. Further, the “Inhibition … Adren. alpha2B” value in assay [6] came out at 119%.
For the molecule `Cc1ccc2c(c1)c1c(n2CC(=O)N2CCCCC2)CCN(C)C1` [Compound 395, 2-(1,2,3,4-tetrahydro-2,8-dimethylpyrido[4,3-b]indol-5-yl)-1-(piperidin-1-yl)ethanone], the inhibition at 1 µM was 20% in assay [1] and 4% in assay [2]. Moreover, the “Inhibition of ligand binding, Dop. D2L” value in assay [3] was 2%. Moreover, the “Inhibition … Ser. 5-HT2A” value in assay [4] stood at 16%. In addition, the “Inhibition … Adren. alpha1D” value in assay [5] came out at 9%. In addition, the “Inhibition … Adren. alpha2B” value in assay [6] amounted to 2%.
In the case of `Cc1ccc2c(c1)c1c(n2CC(=O)N2CCSCC2)CCN(C)C1` [Compound 399, 2-(1,2,3,4-tetrahydro-2,8-dimethylpyrido[4,3-b]indol-5-yl)-1-thiomorpholinoethanone], the inhibition at 1 µM in assay [1] amounted to 42%; in assay [2] it was 10%. In addition, the “Inhibition of ligand binding, Dop. D2L” value in assay [3] came to 0%. Moreover, in assay [4], the “Inhibition … Ser. 5-HT2A” value is 8%. In addition, the “Inhibition … Adren. alpha1D” value in assay [5] worked out at 6%. Moreover, the “Inhibition … Adren. alpha2B” value in assay [6] is 11%.
Turning to `Cc1ccc2c(c1)c1c(n2CC(=O)N2CCc3ccccc3C2)CCN(C)C1` [Compound 398, 2-(1,2,3,4-tetrahydro-2,8-dimethylpyrido[4,3-b]indol-5-yl)-1-(3,4-dihydroisoquinolin-2(1H)-yl)ethanone], the inhibition at 1 µM was 76% in assay [1] and 24% in assay [2]. The “Inhibition of ligand binding, Dop. D2L” value in assay [3] was 8%. In addition, in assay [4], the “Inhibition … Ser. 5-HT2A” value worked out at 85%. The “Inhibition … Adren. alpha1D” value in assay [5] turned out to be 17%. Also, in assay [6], the “Inhibition … Adren. alpha2B” value stood at 50%.
For `CCCc1ccc(CCn2c3c(c4cc(C)ccc42)CN(C)CC3)cn1` [Compound 452, 2,8-Dimethyl-5-[2-(6-propyl-pyridin-3-yl)-ethyl]-2,3,4,5-tetrahydro-1H-pyrido[4,3-b]indole], the inhibition at 1 µM in assay [1] stood at 109%; in assay [2] it was 92%. Also, the “Inhibition of ligand binding, Dop. D2L” value in assay [3] came to 52%. Also, the “Inhibition … Ser. 5-HT2A” value in assay [4] was 97%. Further, in assay [5], the “Inhibition … Adren. alpha1D” value stood at 82%. For the same molecule, the “Inhibition … Adren. alpha2B” value in assay [6] came out at 104%.
On to `Cc1ccc(CCn2c3c(c4cc(Cl)ccc42)CN(c2cccc(C(F)(F)F)c2)CC3)cn1` [Compound 403, 8-Chloro-5-[2-(6-methyl-pyridin-3-yl)-ethyl]-2-(3-trifluoromethyl-phenyl)-2,3,4,5-tetrahydro-1H-pyrido[4,3-b]indole], for which the figures for the inhibition at 1 µM in assay [1] and in assay [2] were 54% and 10%, respectively. Also, the “Inhibition of ligand binding, Dop. D2L” value in assay [3] is given as 2%. For the same molecule, in assay [4], the “Inhibition … Ser. 5-HT2A” value is on record as 32%. In assay [5], the “Inhibition … Adren. alpha1D” value was 19%. Also, in assay [6], the “Inhibition … Adren. alpha2B” value is given as 46%.
Turning to `Cc1ccc2c(c1)c1c(n2CCc2cncc(C(F)(F)F)c2)CCN(C)C1` [Compound 425, 5-(2-(5-(trifluoromethyl)pyridin-3-yl)ethyl)-2,3,4,5-tetrahydro-2,8-dimethyl-1H-pyrido[4,3-b]indole], the inhibition at 1 µM in assay [1] was determined as 100%; in assay [2] it was 85%. In addition, the “Inhibition of ligand binding, Dop. D2L” value in assay [3] is reported as −1%. Besides, the “Inhibition … Ser. 5-HT2A” value in assay [4] turned out to be 84%. Also, the “Inhibition … Adren. alpha1D” value in assay [5] came out at 65%. Besides, in assay [6], the “Inhibition … Adren. alpha2B” value stood at 99%.
On to `CC(C)c1ccc2c(c1)c1c(n2CCc2ccc(C(F)(F)F)nc2)CCN(C)C1` [Compound 342, 8-Isopropyl-2-methyl-5-[2-(6-trifluoromethyl-pyridin-3-yl)-ethyl]-2,3,4,5-tetrahydro-1H-pyrido[4,3-b]indole], for which the inhibition at 1 µM in assay [1] was found to be 80%; in assay [2], 39%. Besides, the “Inhibition of ligand binding, Dop. D2L” value in assay [3] is 29%. Further, the “Inhibition … Ser. 5-HT2A” value in assay [4] is given as 74%. The “Inhibition … Adren. alpha1D” value in assay [5] amounted to 91%. The “Inhibition … Adren. alpha2B” value in assay [6] was 108%.
For `CN1CCc2c(c3cc(OC(F)(F)F)ccc3n2CCc2ccc(C(F)(F)F)nc2)C1` [Compound 341, 5-(2-(6-(trifluoromethyl)pyridin-3-yl)ethyl)-2,3,4,5-tetrahydro-2-methyl-8-(trifluoromethoxy)-1H-pyrido[4,3-b]indole], the inhibition at 1 µM in assay [1] worked out at 28%; in assay [2], 15%. Besides, in assay [3], the “Inhibition of ligand binding, Dop. D2L” value is listed as 8%. In addition, the “Inhibition … Ser. 5-HT2A” value in assay [4] is given as 39%. Also, the “Inhibition … Adren. alpha1D” value in assay [5] is −3%. The “Inhibition … Adren. alpha2B” value in assay [6] was −1%.

These data come from patent publication US9096591B2, “Tetracyclic compounds” (Medivation Technologies, Inc., priority 2007, dated 2015).
